# Square brackets hold non-standard residues; d marks the D form. Ends that are not written are not given here. Peptide text beside a SMILES is read from it.
# Experiments:
# [1] = test system: Ang II-infused mice; test: Angiotensin II-induced congestive heart failure (CHF) model; type: in vivo; details: for suppression of the effects of AngII on Heart Weight/Body Weight (HW/BW) ratio: young mice (3 months) infused with Ang II two weeks
# Description: FIG. 1 provides an overview of an experiment using Full-Length CSD, 82-89, 88-95, and 94-101 (SEQ ID NO:1, SEQ ID NO:2, SEQ ID NO:3, and SEQ ID NO:4 respectively).
# Young mice (3 months old) infused with Ang II or vehicle for two weeks received daily i.p. injections of CSD, the indicated subdomains or scrambled CSD (0.8 μmol/kg). Mice were evaluated by Echocardiography for changes in posterior wall thickness (pWTh), fractional shortening (FS), cardiac output (CO), ejection fraction (EF), and isovolumic relaxation time (IVRT). Significant changes are shown as ***p<0.001 for Sham+Veh vs AngII+Veh. Significant suppression of AngII-induced changes is shown as ^p<0.05, ^^p<0.01, and ^^^p<0.001 for AngII+Veh vs AngII+CSD or AngII+CSD subdomains. The number of mice used in each treatment are shown in the HW/BW data.
# Young mice (3 months old) infused with Ang II or vehicle for two weeks received daily i.p. injections of the indicated subdomains of CSD. The results of a typical experiment for Col I and HSP47 (FIG. 4) and for microvascular leakage (FIG. 5) are shown in Western blots (2 to 3 mice per group). The data are quantified below (n=4). Significant changes are shown as *p<0.05 and **p<0.01 for Sham+Veh vs Ang II+Veh. Significant suppression of Ang II-induced changes by subdomains are shown as ^p<0.05, […], and ^^^p<0.001 for Ang II+Veh vs Ang II+CSD subdomains.
# Young mice (3 months old) infused with Ang II or vehicle for two weeks received daily i.p. injections of W82-89. IgG heavy chain (IgGH) leakage and Col I accumulation are shown in Western blots. The actin loading control is present twice because IgGH was analyzed in the supernatant fraction of heart homogenate while Col I is found in the pellet fraction. In the quantitation (n=4), significant changes are shown as **p<0.01 and ***p<0.001 for Sham+Veh vs Ang II+Veh and ^^p<0.01 and ^^^p<0.001 for reversal of AngII-induced changes by W82-89.
# [2] = Plasma level of fluoresceinated W82-89 after i.p. or i.n. delivery; parameters: species or system mice; details: mouse, in vivo
# Description: administration of the water soluble CSD peptides is a promising route of delivery. Two mice received a single i.p. injection of 0.8 μmol/kg fluoresceinated W82-89 in 100 μl PBS. Two mice received fluoresceinated W82-89 i.n. (4 μmol/kg in 30 μl PBS (15 μl per nostril)). Using calibrated capillary tubes, 50 μl of blood was collected from the maxillary vein from one mouse from each pair at 3 min, 30 min, 2 h, and 6 h; and from the other mouse from each pair at 10 min, 1 h, 4 h, and 8 h. Blood was immediately diluted with 200 μl PBS/10 mM EDTA, and centrifuged to harvest plasma. The level of W82-89 in the plasma was determined using a fluorescent plate reader.
# [3] = in vivo, ip
# Description: Following a single i.p. dose of the indicated fluorescent peptides, blood was collected from the maxillary vein at intervals and the levels of the peptides in plasma derived from the blood was determined using a fluorescent plate reader.
# [4] = test system: aged C57/Bl6 mice (18 months); test: Aging-associated pathological changes in heart and kidney of aged mice; type: in vivo
# Description: The function of various organs in the elderly goes downhill progressively. This is in part due to increases in fibrosis and microvascular leakage. The experiments presented in this Example have examined these progressive processes in mice.
# Young C57/Bl6 mice (3 months), middle-aged C57/Bl6 mice (9 months), and aged C57/Bl6 mice (18 months) were injected daily i.p. for six weeks with saline vehicle or CSD. IgG heavy chain leakage and Col I accumulation were evaluated by Western blots of heart (FIG. 10) and kidney tissue (FIG. 11). Actin was the loading control. Two to three mice per category are shown. In the quantifications (n=4), significant changes are shown as ***p<0.001 between young and aged mice and ^^^p<0.001 for decreases in aged mice treated with CSD. In FIG. 12, representative examples of picrosirius red staining of heart and kidney tissue sections from the indicated mice are shown. The data were quantified (n=3) as in terms of Collagen Volume Fraction. Significant changes are shown as ***p<0.001 and **p<0.01 between young and aged mice and ^p<0.05 for decreases in aged mice treated with CSD.
# The same extracts used in FIG. 10 and FIG. 11 were analyzed by Western Blot for tyrosine kinase activation using antibodies specific for phosphorylated tyrosine residues in PDGFR (α-Y849/β-Y857), c-Src Y426, and Pyk2 Y402. Actin was the loading control. In the quantifications, significant changes are shown as ***p<0.001 and **p<0.01 between young and aged mice and ^^^p<0.001 and ^^p<0.01 for decreases in Aged mice treated with CSD.
# Echocardiographic analyses were performed on the same mice used in FIG. 10 and FIG. 11 prior to their sacrifice. M-mode echo measurements in parasternal short-axis (PSAX) view were used to quantify changes in EF and FS. Tissue Doppler measurements in PSAX were used to measure IVRT. Values are shown as Mean±SEM. Statistically significant changes are shown as ***p<0.001 between young and aged mice and ^p<0.05 for improved functions in aged mice due to CSD treatment (FIG. 14).
# Left ventricle tissue sections from the same mice used in FIG. 10 were stained with hematoxylin-eosin and cardiomyocyte cross-sectional area was quantified by measuring at least 50 cardiomyocytes for each group (n=3) using SigmaScan Pro image analysis. Statistical significance is shown as ***p<0.001 between young and aged mice and ^p<0.05 for decreased hypertrophy in aged mice due to CSD treatment (FIG. 15).
# [5] = test system: aged mice (18-month old), brain tissue; test: Aging-associated pathological changes in the brain of aged mice; type: in vivo; details: 18-month old mice; CSD injections for four weeks; Western blot
# Description: FIG. 16 provides an overview of an experiment using CSD (SEQ ID NO: 1). It is similar to the experiment described in FIG. 9 except that the readouts were performed on brain tissue rather than heart and kidney tissue.
# Mice were treated as described in FIG. 10, except that CSD injections were for four weeks. Brain tissue extracts were analyzed by Western blot for microvascular leakage and fibrosis (FIG. 17) and for tyrosine kinase activation (FIG. 18). In the quantifications (n=3), significant changes are shown as ***p<0.001 and **p<0.01 between young and aged mice and ^^^p<0.001 and ^^p<0.01 for decreases in aged mice due to CSD treatment.
# [6] = test system: bleomycin-treated mice; test: Bleomycin-induced lung and skin fibrosis, treatments delivered by pump; type: in vivo
# Description: Experiments were conducted to examine the effect of unmodified CSD subdomains on lung and skin fibrosis. […] Pumps containing bleomycin or saline vehicle were implanted subcutaneously into mice. After one week, the pumps had emptied and were replaced with pumps designed to empty over two weeks containing the indicated treatments (n=6 per group). After these two weeks, the mice were sacrificed.
# Skin in the vicinity of the pump outlet was harvested for measurement of the thickness of the dermis and the intradermal fat. ^^^p<0.001 for Saline/Vehicle vs Bleo/Vehicle. ***p<0.001, **p<0.01, *p<0.05 for Bleo/Vehicle vs Bleo/Peptide Treatments.
# [7] = test system: Bone marrow (BM) monocytes; test: Migration of bone marrow monocytes from bleomycin-treated mice treated in vivo; details: mice treated in vivo prior to harvesting the monocytes
# Excerpt: Recruitment of activated monocytes into damaged lung tissue contributes to the progression of fibrosis and is suppressed in vivo by CSD (FIG. 22). Bone marrow (BM) monocytes were isolated from control and bleomycin-treated mice.
# [8] = test system: aged C57/Bl6 mice (18 months); test: Aging-associated pathological changes in heart and kidney of aged mice; type: in vivo; details: echocardiography
# [9] = test system: fibrosis in lung, skin, and heart; details: literature; cited from earlier work
# [10] = 18-month old mice, daily i.p. six weeks, Western blot
# [11] = aged mice, Western blot for phosphorylated tyrosine residues
# [12] = skin in the vicinity of the pump outlet
compound,measurement,setting,value
CC[C@H](C)[C@H](NC(=O)CNC(=O)[C@H](CC(=O)O)NC(=O)[C@@H](CCCCN)NC(=O)[C@@H](CCCCN)NC(C)=O)C(=O)N[C@@H](Cc1c[nH]c2ccccc12)C(=O)N[C@@H](CCCCN)C(=O)N[C@@H](C)C(=O)N[C@@H](CO)C(=O)N[C@@H](Cc1ccccc1)C(=O)N[C@H](CCCCN)C(=O)N[C@H](CCCCN)C(N)=O [W82-89] (Ac-[dK][dK]DGIWKASF[dK][dK]-NH2),suppression of AngII-induced fibrosis (Col I levels) in the heart,"[1]; W82-89 experiment (FIG. 6, 7), daily i.p. injections",suppressed by W82-89 with high significance
same,suppression of AngII-induced microvascular leakage in the heart (IgG heavy chain level in the tissue),"[1]; Western blot, daily i.p. injections",suppressed by W82-89 with high significance
same,overall effectiveness of domains in the CHF model (summary of FIGS. 1-7),"[1]; summary, FIG. 8",more effective than 82-89 and at least as effective as 88-95
same,suppression of the effects of AngII on Heart Weight/Body Weight (HW/BW) ratio,[1]; daily i.p. injections,suppressed by W82-89 with high significance
same,Area Under the Curve for i.n. delivery relative to i.p. dose,[2],> 1.5 fold
same,uptake into plasma following i.p. administration,[3],much greater than the uptake of CSD or WCSD
"caveolin-1 scaffolding domain peptide (DGIWKASFTTFTVTKYWFYR-NH2) [CSD, amino acids 82-101 of caveolin-1]",suppression of the effects of AngII on Heart Weight/Body Weight (HW/BW) ratio,[1]; daily i.p. injections,suppress
same,"suppression of the effects of AngII on Ejection Fraction (EF), Fractional Shortening (FS), Isovolumic Relaxation Time (IVRT)","[1]; young mice infused with Ang II two weeks, daily i.p. injections, echocardiography",suppress
same,level of fibrosis (Col I accumulation) in the heart,[4]; [10],reverses the levels of fibrosis and microvascular leakage almost to the level observed in 3-month old mice
same,level of fibrosis (Col I accumulation) in the kidney,[4]; [10],reverses the levels of fibrosis and microvascular leakage almost to the level observed in 3-month old mice
same,level of microvascular leakage (IgG heavy chain) in the heart,[4]; [10],reverses the levels of fibrosis and microvascular leakage almost to the level observed in 3-month old mice
same,level of microvascular leakage (IgG heavy chain) in the kidney,[4]; [10],reverses the levels of fibrosis and microvascular leakage almost to the level observed in 3-month old mice
same,"picrosirius red staining (collagen volume fraction), heart","[4]; aged mice, heart tissue sections",significantly reduced
same,"picrosirius red staining (collagen volume fraction), kidney","[4]; aged mice, kidney tissue sections",significantly reduced
same,"aging-associated activation of tyrosine kinases PDGFR, c-Src and Pyk2, heart",[4]; [11],almost completely reversed
same,"aging-associated activation of tyrosine kinases PDGFR, c-Src and Pyk2, kidney",[4]; [11],almost completely reversed
same,IVRT (prolonged ventricular relaxation time caused by aging),"[4]; aged mice, echocardiography",resolved by CSD treatment
same,cardiomyocyte hypertrophy (cross-sectional area),"[4]; aged mice, left ventricle sections",reversed
same,level of activated tyrosine kinases in the brain,[5],decreases these levels almost to the levels observed in healthy 3-month old mice
same,level of fibrosis in the brain,[5],decreases these levels almost to the levels observed in healthy 3-month old mice
same,level of microvascular leakage in the brain,[5],decreases these levels almost to the levels observed in healthy 3-month old mice
same,dermal fibrosis (thickness of the dermis),[6]; [12],suppression
same,loss of intradermal fat,[6]; [12],suppression
same,bleomycin-induced lung fibrosis (Ashcroft score),"[6]; treatment by pump over two weeks after one week bleomycin, n=6",suppression
same,enhanced migration of BM monocytes from bleomycin-treated mice,[7],suppression
same,FS and SV (ventricular function),[8],positive effect
same,inhibition of fibrosis in vivo,[9],"inhibits fibrosis in vivo in lung, skin, and heart"
